Active and inactive are the calls of the source.
Legend:
[1] = molecular target: T1, Apoptotic protease-activating factor 1 (Homo sapiens, UniProt O14727); assay: activation of Apaf-1 mediated apoptosis – fluorescent, uHTS hits, dose response (AID 588554); assay type: functional
T1 sequence (O14727 whole entry): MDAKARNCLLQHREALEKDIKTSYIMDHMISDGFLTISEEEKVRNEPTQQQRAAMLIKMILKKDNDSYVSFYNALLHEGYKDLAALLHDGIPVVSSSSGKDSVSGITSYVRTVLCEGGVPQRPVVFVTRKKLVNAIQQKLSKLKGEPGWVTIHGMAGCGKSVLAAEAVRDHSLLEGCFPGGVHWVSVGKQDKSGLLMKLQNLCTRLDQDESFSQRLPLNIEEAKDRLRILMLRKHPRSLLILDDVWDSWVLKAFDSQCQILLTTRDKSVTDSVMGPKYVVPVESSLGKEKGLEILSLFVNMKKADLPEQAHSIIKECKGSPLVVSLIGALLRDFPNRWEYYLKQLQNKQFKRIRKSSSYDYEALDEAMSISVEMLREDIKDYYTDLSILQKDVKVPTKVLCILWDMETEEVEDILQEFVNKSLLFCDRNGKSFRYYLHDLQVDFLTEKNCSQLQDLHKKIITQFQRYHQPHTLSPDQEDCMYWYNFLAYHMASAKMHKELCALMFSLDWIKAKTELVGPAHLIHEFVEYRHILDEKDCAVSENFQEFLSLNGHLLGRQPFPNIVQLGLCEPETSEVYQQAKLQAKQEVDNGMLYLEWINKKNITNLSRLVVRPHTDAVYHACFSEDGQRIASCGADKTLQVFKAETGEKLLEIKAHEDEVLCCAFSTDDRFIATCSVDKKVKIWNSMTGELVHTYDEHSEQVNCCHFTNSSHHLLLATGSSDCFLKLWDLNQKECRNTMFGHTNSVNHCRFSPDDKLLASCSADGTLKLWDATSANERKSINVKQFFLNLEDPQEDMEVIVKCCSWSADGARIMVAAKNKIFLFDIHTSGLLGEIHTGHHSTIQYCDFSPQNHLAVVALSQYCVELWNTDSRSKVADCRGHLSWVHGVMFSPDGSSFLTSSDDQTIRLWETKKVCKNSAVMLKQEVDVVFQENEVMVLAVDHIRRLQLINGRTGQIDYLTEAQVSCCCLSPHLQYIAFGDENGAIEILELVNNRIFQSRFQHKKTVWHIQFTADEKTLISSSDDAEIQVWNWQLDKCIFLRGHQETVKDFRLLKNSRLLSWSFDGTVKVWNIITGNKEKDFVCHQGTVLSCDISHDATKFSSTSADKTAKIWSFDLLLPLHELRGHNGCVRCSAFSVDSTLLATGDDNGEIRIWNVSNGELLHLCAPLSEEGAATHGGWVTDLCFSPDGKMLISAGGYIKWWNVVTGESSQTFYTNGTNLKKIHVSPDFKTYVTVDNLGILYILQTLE

[2] = molecular target: DNA dC->dU-editing enzyme APOBEC-3G (Homo sapiens, UniProt Q9HC16); assay: Dose Response confirmation of small molecule APOBEC3G DNA Deaminase Inhibitors via a fluorescence-based single-stranded DNA deaminase assay. [Related pubchem assays (depositor defined):AID493012, AID493028]; assay type: functional
[3] = molecular target: DNA dC->dU-editing enzyme APOBEC-3A (Homo sapiens, UniProt P31941); assay: A3A deaminase inhibition for selectivity – biochemical, dose response (AID 504722); assay type: functional
[4] = molecular target: T2, Carboxy-terminal domain RNA polymerase II polypeptide A small phosphatase 1 (Homo sapiens, UniProt Q9GZU7); assay: CTDSP1 inhibitors, concentration-response, biochemical, absorbance readout, ultra-high-throughput screen actives (AID 540297); assay type: functional
T2 sequence (Q9GZU7 whole entry): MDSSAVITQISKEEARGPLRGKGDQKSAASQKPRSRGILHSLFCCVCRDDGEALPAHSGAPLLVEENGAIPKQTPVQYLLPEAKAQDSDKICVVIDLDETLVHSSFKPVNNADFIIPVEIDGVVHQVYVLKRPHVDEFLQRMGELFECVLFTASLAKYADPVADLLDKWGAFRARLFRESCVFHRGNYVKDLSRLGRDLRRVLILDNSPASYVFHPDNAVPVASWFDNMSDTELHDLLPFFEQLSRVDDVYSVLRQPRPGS

[5] = molecular target: Beta-adrenergic receptor kinase 1 (Homo sapiens, UniProt P25098); assay: aptamer displacement from bead-bound GRK2 – biochemical, cherry pick 1, bead flow cytometry, dose response (AID 504500)
[6] = system: HeLa; assay: ATP-based viability loss in HeLa cells – cell-based, CellTiter-Glo luminescence, cherry-pick samples, cytotoxicity control for MITF activator project, dose response (AID 540259); assay type: functional; details: Homo sapiens
[7] = viability of uninfected HEp-2 cells – cell-based, HTS, cytotoxicity control for RSV inhibitor project, dose response (AID 2410); assay type: functional; details: human respiratory syncytial virus
[8] = system: Vero; assay: cells; assay type: functional, cell-based; details: Chlorocebus sabaeus
[9] = system: Jurkat; assay: SAR Analysis of small molecule inhibitors of T-cell specific antigen receptor-induced NF-kB activation in a Jurkat cell line using a luminescence assay - Set 2. [Related pubchem assays (depositor defined):AID435003, AID435012, AID465]; assay type: functional, cell-based; details: Homo sapiens
[10] = system: HEK293; assay: cells; assay type: functional, cell-based; details: Homo sapiens
[11] = system: HEK293; assay: NOD2 signaling inhibitors in MDP-stimulated cells, cell-based, uHTS, luminescence (AID 2001); assay type: functional; details: Homo sapiens
[12] = system: HEK293; assay: inhibition of NOD1-driven NF-kB reporter – cell-based, luminescence, uHTS, primary screen (AID 1578); assay type: functional; details: Homo sapiens
[13] = molecular target: Nucleotide-binding oligomerization domain-containing protein 2 (Homo sapiens, UniProt Q9HC29); assay: inhibition of NOD2-driven NF-kB reporter – cell-based, luminescence, uHTS, HEK293 (AID 1566); assay type: functional
[14] = system: HEK293; assay: cells; assay type: functional, cell-based; details: Homo sapiens; remark: listed apart in the source
[15] = molecular target: T3, Microphthalmia-associated transcription factor (Homo sapiens, UniProt O75030); assay: reducers of TRPM1 reporter luminescence, concentration series – cell-based, SK-MEL-5, cherry-picked, set 3, MITF inhibitor project, dose response (AID 493073); assay type: functional;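 note: SK-MEL-5 melanoma cells with luciferase driven by the MITF target TRPM1 promoter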
T3 sequence (O75030 whole entry): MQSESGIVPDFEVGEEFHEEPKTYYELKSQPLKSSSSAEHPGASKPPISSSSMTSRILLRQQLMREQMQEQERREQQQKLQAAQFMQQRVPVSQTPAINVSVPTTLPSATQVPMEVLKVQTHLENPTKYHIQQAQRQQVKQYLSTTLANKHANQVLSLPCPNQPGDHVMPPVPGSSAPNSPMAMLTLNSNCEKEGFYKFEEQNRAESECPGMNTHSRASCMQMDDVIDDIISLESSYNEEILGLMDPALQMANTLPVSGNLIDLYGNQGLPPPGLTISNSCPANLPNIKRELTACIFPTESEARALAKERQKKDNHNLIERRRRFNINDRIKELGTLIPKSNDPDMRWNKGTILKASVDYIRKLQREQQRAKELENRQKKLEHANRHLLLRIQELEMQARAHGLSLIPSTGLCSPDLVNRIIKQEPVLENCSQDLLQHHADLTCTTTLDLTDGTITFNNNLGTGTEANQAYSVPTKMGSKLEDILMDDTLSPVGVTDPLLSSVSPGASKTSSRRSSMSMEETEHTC

[16] = system: HEK293; assay: SAR Analysis of small molecule inhibitors of T-cell specific antigen receptor-induced NF-kB activation in a HEK-293T cell line using a luminescence assay - Set 2. [Related pubchem assays (depositor defined):AID435003, AID435012, AID489026]; assay type: functional, cell-based; details: Homo sapiens
[17] = system: HEK293; assay: cells; assay type: functional, cell-based; details: Homo sapiens; remark: listed apart in the source
[18] = system: HEK293; assay: HEK293T cell viability loss, resazurin readout – resazurin fluorescence, cytotoxicity control for NF-kB activator project, SAR follow-up (AID 493251); assay type: functional, cell-based; details: Homo sapiens
[19] = molecular target: Dual specificity protein kinase CLK1 (Homo sapiens, UniProt P49759); assay: inhibition of human CLK1 activity – biochemical, cherry-picked samples, selectivity assay for Dyrk1A inhibitor project, dose response (AID 588811)
[20] = system: Escherichia coli; assay: microbe, parasite or virus in culture

Chain of DNA dC->dU-editing enzyme APOBEC-3A (P31941 whole entry, the tested form may be a part): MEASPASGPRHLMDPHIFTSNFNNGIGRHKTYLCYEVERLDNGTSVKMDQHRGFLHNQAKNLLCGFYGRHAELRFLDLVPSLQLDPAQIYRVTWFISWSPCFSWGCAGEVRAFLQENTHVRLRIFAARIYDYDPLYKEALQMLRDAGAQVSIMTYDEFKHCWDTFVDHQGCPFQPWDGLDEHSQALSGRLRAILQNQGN
Chain of Nucleotide-binding oligomerization domain-containing protein 2 (Q9HC29 whole entry, the tested form may be a part): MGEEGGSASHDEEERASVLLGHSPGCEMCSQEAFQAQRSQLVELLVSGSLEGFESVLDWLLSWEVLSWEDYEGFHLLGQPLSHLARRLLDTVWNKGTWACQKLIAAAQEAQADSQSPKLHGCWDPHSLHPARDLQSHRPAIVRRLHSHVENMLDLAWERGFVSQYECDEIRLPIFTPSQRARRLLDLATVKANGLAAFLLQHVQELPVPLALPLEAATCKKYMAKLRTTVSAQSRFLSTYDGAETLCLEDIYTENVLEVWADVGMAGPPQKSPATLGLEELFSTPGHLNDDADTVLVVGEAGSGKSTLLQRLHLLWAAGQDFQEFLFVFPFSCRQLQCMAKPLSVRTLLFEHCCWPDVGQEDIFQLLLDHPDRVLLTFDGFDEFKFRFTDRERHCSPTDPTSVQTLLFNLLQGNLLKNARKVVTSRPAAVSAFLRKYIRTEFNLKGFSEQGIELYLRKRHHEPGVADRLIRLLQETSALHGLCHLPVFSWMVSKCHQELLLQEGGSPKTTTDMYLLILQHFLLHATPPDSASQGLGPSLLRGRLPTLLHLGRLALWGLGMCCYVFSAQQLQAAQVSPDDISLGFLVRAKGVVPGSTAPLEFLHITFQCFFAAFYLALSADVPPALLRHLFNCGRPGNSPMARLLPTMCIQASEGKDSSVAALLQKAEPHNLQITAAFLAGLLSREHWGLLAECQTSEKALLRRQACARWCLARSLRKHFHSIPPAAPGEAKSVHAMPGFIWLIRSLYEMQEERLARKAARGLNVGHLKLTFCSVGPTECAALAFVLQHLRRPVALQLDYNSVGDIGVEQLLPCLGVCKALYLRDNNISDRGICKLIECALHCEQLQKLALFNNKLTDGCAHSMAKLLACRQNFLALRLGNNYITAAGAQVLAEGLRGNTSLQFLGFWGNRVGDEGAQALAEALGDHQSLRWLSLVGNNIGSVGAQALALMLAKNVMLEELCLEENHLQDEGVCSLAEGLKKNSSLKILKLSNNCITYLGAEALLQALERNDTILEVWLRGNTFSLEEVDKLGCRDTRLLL
Chain of Dual specificity protein kinase CLK1 (P49759 whole entry): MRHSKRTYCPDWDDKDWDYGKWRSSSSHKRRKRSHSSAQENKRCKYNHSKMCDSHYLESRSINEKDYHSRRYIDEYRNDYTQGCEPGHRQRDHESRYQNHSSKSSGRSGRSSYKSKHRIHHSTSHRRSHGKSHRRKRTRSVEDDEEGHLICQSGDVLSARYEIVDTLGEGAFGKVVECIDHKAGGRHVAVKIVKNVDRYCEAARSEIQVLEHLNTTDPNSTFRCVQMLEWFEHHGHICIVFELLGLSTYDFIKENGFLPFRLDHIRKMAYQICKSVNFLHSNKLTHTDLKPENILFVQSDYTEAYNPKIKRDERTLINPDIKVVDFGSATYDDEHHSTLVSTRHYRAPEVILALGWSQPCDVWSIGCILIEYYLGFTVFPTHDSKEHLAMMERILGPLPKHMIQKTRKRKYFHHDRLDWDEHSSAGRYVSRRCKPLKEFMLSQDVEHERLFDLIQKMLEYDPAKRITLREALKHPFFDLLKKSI
Chain of DNA dC->dU-editing enzyme APOBEC-3G (Q9HC16 whole entry): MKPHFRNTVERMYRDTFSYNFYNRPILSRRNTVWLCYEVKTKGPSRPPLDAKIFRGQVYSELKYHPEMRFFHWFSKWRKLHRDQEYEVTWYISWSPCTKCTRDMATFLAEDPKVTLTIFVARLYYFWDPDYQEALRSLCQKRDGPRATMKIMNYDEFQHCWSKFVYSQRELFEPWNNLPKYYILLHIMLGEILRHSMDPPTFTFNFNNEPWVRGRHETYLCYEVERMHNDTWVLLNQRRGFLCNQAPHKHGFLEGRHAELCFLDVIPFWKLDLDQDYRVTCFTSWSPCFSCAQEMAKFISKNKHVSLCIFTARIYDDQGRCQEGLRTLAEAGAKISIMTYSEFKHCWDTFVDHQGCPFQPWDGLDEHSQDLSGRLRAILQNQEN
Chain of Beta-adrenergic receptor kinase 1 (P25098 whole entry): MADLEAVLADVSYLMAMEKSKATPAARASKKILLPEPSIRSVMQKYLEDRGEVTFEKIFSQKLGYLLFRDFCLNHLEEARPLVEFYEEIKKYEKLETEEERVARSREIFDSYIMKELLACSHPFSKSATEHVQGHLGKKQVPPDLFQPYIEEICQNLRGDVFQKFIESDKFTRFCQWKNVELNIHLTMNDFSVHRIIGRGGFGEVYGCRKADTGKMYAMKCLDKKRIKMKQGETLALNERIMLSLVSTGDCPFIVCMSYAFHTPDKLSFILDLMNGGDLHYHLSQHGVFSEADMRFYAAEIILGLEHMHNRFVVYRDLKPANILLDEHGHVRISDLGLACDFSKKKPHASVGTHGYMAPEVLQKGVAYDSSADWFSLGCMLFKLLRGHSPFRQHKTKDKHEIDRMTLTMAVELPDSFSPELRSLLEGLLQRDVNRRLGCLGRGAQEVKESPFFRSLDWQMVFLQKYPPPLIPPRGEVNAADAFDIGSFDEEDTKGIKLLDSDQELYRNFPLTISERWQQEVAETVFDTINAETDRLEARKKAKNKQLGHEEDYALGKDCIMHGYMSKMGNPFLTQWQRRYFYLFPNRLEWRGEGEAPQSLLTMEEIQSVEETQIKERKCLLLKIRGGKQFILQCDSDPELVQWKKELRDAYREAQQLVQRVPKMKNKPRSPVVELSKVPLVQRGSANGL

C=C(C)C(=O)Nc1cccc(C2=NOC3(C2)C[C@H](C(N)=O)N(C(=O)c2ccccc2)C3)c1 (stereo not given in full)
EC50 [1]: 17.1 µM (active) | IC50 [2]: 14.3 µM (active) | IC50 [3]: > 100 µM (inactive) | IC50 [4]: 3.85 µM (active) | EC50 [5]: 12.5 µM (inactive)

CC1CCN(c2oc(-c3ccccc3Cl)nc2C#N)CC1
AC50 [6]: 73 µM (active)

CC(Sc1nnc(Nc2ccccc2)s1)C(=O)Nc1nc(-c2ccccc2)cs1 (stereo not given)
CC50 [7]: > 50 µM (active) | IC50 [8]: > 25 µM (active)

O=C(Nc1ccc2oc(-c3cccnc3)nc2c1)c1ccc([N+](=O)[O-])o1
IC50 [9]: 38.7 µM (inactive) | IC50 [10]: > 20 µM (inactive) | IC50 [11]: 7.39 µM (active) | EC50 [12]: 7.26 µM (active) | EC50 [13]: > 20 µM (inactive) | IC50 [14]: > 20 µM (inactive) | AC50 [15]: 14.2 µM (active) | IC50 [16]: 51.5 µM (inactive) | IC50 [17]: 4.02 µM (active) | IC50 [18]: > 80 µM (inactive)

Fc1c(-c2ccc3ncnc(NCc4cccs4)c3c2)ccc2c1OCO2
AC50 [19]: 0.057 µM (active)

Cc1cc(Cl)c(S(=O)(=O)NC(C(=O)O)C(C)C)cc1OCC(=O)NC1CCCCC1 (stereo not given)
AC50 [20]: 25.9 µM (active)
